Measurements: patent US7531194B2, “Plant extracts for the treatment of rheumatoid arthritis” (Development Center for Biotechnology, priority 2006, dated 2009)

Key:
Assay type in all cases: in vivo, Lewis rats
[1] = Body weight of CIA rats fed PA crude extracts (Embodiment 2); conditions: gavage from about Day 20 until Day 45, PA-H 375, PA-L 75, indomethacin 2.5 mg/kg/day, FIG. 3
Procedure: The test animals, Lewis rats, 8 weeks old and about 155-165 g in weight, were all purchased from National Laboratory Animal Center. They were raised in an animal house with a 12-hour light/12-hour dark cycle, a room temperature of 23±1° C., moderate moisture, and good air conditioning, wherein water and feed were provided ad libitum. In addition, during the operation, all the test animals conformed to the criteria of the International Committee on Laboratory Animals' standard regulation. The animal test scheme is shown as FIG. 2. Bovine collagen Type II (Bovine C II) was dissolved in 0.1 M acetic acid solution, stirred to dissolve thoroughly, and formulated into solutions with concentrations of 1.5 and 3 mg/ml, which were stored in 4° C. for later use. For the first immune injection, 100 μl of C II solution was emulsified with an equal amount of CFA, and injected subcutaneously (200 μl/rat) in the root portions of tails of the rats after the emulsification was complete. […] After about 15 days, the second immunization was done. 100 μl of C II solution was emulsified with an equal amount of IFA, and injected subcutaneously (200 μl/rat) in the root portions of tails of the rats after the emulsification was complete. Approximately from Day 20, the symptoms of arthritis were observed (CIA rats), and PA and indomethacin were fed until Day 45. [table] 1. […]

IL-1β = assay: Abdominal cavity cell (PEC) culture, cytokine IL-1β, CIA rats fed PA crude extracts (Embodiment 2); conditions: LPS 10 μg/ml, 24 hours, FIG. 8
Procedure: (§1) The animal test scheme is shown as FIG. 2. Bovine collagen Type II (Bovine C II) was dissolved in 0.1 M acetic acid solution, stirred to dissolve thoroughly, and formulated into solutions with concentrations of 1.5 and 3 mg/ml, which were stored in 4° C. for later use. For the first immune injection, 100 μl of C II solution was emulsified with an equal amount of CFA, and injected subcutaneously (200 μl/rat) in the root portions of tails of the rats after the emulsification was complete. […] After about 15 days, the second immunization was done. 100 μl of C II solution was emulsified with an equal amount of IFA, and injected subcutaneously (200 μl/rat) in the root portions of tails of the rats after the emulsification was complete. Approximately from Day 20, the symptoms of arthritis were observed (CIA rats), and PA and indomethacin were fed until Day 45. [table] 1. After carbon dioxide euthanasia, the outer furs of the rat abdominal cavity were cut out by scissors, to expose the whole abdominal cavity. 2. HBSS buffer was injected into the abdominal cavity batch-wise by a 10 ml syringe to make a total volume of about 20 ml/rat. 3. The abdominal cavity of the rat was opened after the abdomen was gently kneaded. An incision of about 2 cm was made in the abdominal cavity by using scissors. […] The concentrations of cytokine TNF-α, IL-6, and IL-1β were analyzed by using ELISA kit.

IL-6 = assay: Abdominal cavity cell (PEC) culture, cytokine IL-6, CIA rats fed PA crude extracts (Embodiment 2); conditions: LPS 10 μg/ml, 24 hours, FIG. 9
Procedure: as §1

CIA rats = assay: Maximum arthritic index (MAI) of CIA rats fed PA crude extracts (Embodiment 2); conditions: gavage until Day 45, PA-H 375, PA-L 75, indomethacin 2.5 mg/kg/day, FIG. 4
Procedure: The animal test scheme is shown as FIG. 2. Bovine collagen Type II (Bovine C II) was dissolved in 0.1 M acetic acid solution, stirred to dissolve thoroughly, and formulated into solutions with concentrations of 1.5 and 3 mg/ml, which were stored in 4° C. for later use. For the first immune injection, 100 μl of C II solution was emulsified with an equal amount of CFA, and injected subcutaneously (200 μl/rat) in the root portions of tails of the rats after the emulsification was complete. […] After about 15 days, the second immunization was done. 100 μl of C II solution was emulsified with an equal amount of IFA, and injected subcutaneously (200 μl/rat) in the root portions of tails of the rats after the emulsification was complete. Approximately from Day 20, the symptoms of arthritis were observed (CIA rats), and PA and indomethacin were fed until Day 45. [table] 2. Evaluation of RA examination: evaluated in maximum arthritic index (MAI) After immunization, the rats were observed three times a week. The changes of redness and swelling or the like in limbs were recorded, and photographs were taken and filed for comparison. […] Maximum arthritic index, average MAI for each group was calculated as follows: Average MAI=Total of MAI recorded in limbs of each rat (0: no CIA occurs, 16: highest score)/4/total rat number of each group

## COc1ccc2c(c1)c(CC(=O)O)c(C)n2C(=O)c1ccc(Cl)cc1 [indomethacin, Indomethacin]
[1]
  effect on the body weight of CIA rats (weight reduction): weight reduction is efficiently avoided
IL-1β
  inhibition of PEC secreting IL-1β: no effect of inhibiting PEC from secreting inflammatory cytokine
IL-6
  inhibition of PEC secreting IL-6: no effect of inhibiting PEC from secreting inflammatory cytokine
CIA rats
  effect on the arthritic indices (MAI) of CIA rats: most preferred
